Assay results: US10300056B2, “CGRP receptor antagonists” (Heptares Therapeutics Limited, priority 2015, dated 2019)
Converted amounts (≈) assume the structure as drawn. Where a name gives a salt, the structure may show the parent alone. Read-outs that look alike come from different tables or passages of the source.

What was measured:
[1] = target: CGRP receptor ectodomain complex (Homo sapiens (Human), UniProt O60894+Q16602); experiment: Receptor kinetic profiling by surface plasmon resonance (Biacore T200); conditions: SPR; for receptor dissociation (off-rate) compared with olcegepant or MK-3207: in words; for CGRP t1/2: dissociation half-life, 25° C.
Sequence of CGRP receptor ectodomain complex (Q16602 23-139): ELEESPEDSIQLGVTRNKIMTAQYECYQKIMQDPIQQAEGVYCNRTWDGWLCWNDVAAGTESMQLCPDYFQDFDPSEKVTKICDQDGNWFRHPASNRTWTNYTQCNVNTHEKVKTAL
Sequence of CGRP receptor ectodomain complex (O60894 27-118): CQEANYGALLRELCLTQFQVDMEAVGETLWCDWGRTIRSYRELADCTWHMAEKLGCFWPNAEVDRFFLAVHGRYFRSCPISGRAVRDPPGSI
Procedure: Kinetic analyses were run on a Biacore T200 instrument (GE Healthcare Bio-Sciences AB, Uppsala, Sweden) at 25° C. using 0.05 mM EDTA, PBS (10 mM phosphate buffer, 2.7 mM KCl, 137 mM NaCl) pH 7.4, 0.005% v/v Surfactant P20, 5% DMSO as the running buffer. […] The chip was loaded with Ni^2+ and carboxyl groups of the dextran matrix were activated by EDC/NHS. The receptor ectodomain complex (100 nM in running buffer) was then injected and immobilised via the His-tag and amino groups. Two fold dilution series of each compound (five concentrations, in the range 25-40 nM) were injected. Blank-subtracted data were fitted to a 1:1 interaction model to obtain kinetic parameters which are expressed in Table 4 as dissociation half-life (t1/2=(ln 2/off-rate (kd)/60).

CGRP receptor = CGRP receptor (Homo sapiens (Human), UniProt O60894+Q16602); experiment: cAMP functional assay (HTRF) in SK-N-MC cells; format: cell-based; conditions: read-out: pkb average (converted)
Sequence of CGRP receptor (Q16602 23-461): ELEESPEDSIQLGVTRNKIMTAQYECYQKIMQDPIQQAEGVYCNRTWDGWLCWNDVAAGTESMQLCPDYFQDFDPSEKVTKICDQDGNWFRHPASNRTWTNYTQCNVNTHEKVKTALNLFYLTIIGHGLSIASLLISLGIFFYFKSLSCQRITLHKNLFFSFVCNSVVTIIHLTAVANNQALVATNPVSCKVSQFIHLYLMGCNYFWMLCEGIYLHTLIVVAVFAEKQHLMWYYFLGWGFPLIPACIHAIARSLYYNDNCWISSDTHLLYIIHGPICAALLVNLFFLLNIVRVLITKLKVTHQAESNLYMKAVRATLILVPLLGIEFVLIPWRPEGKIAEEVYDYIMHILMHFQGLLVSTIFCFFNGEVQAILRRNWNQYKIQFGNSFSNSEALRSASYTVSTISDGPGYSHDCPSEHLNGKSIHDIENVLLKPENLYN
Sequence of CGRP receptor (O60894 27-148): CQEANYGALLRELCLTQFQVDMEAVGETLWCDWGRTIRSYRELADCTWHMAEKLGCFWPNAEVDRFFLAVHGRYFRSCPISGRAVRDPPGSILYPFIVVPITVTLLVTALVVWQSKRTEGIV
Procedure: cAMP production following receptor activation was determined using the Homogeneous Time-Resolved Fluorescence (HTRF) cAMP dynamic-2 assay (Cisbio, France). The human neuroblastoma cell line SK-N-MC endogenously expressing the human CGRP receptor was seeded at a density of 12,500 cells/well in solid walled 96 well half area plates (Costar, Catalog Number 3688, Corning Life Sciences, Germany). After 16 h incubation at 37° C. media was removed and cells were incubated at 37° C. for 30 min in serum free media containing 500 μM IBMX (Tocris, Abingdon, UK, Catalog Number 2845) and increasing concentrations of test antagonist. Following this cells were challenged with an EC80 concentration of human CGRP (0.3 nM) for a further 30 min at 37° C. and then cAMP production was determined as manufacturer's instructions before plates were read on a PheraStar fluorescence plate reader (BMG LabTech, Germany). IC50 values were derived from the inhibition curve. The pIC50 values (where pIC50=−log10 IC50) were converted to a functional pKb value using a modified Cheng-Prussoff equation where Kd=agonist EC50 and L hot=agonist challenge concentration. The pKb values of certain compounds of the invention are detailed in Table 3.

[2] = target: Human CGRP receptors (consisting of CRLR and RAMP1) (Homo sapiens (Human), UniProt O60894+Q16602); experiment: Radioligand binding assay (3H-telcagepant displacement); conditions: Sf21 membranes, 0.5 nM 3H-telcagepant, Cheng-Prussoff
Sequence of Human CGRP receptors (consisting of CRLR and RAMP1) (Q16602 23-461): as the sequence (Q16602 23-461) above
Sequence of Human CGRP receptors (consisting of CRLR and RAMP1) (O60894 27-148): as the sequence (O60894 27-148) above
Procedure: Human Calcitonin Receptor Like Receptor (CRLR) and human RAMP1 were cloned into Invitrogen's (ThermoFisher Scientific, UK) pFastBac dual expression vector. Transposition of CRLR/RAMP1 DNA was performed using Invitrogen's Bac-to-Bac Baculovirus Expression Systems. P0 baculovirus was generated by transfecting SF9 cells with bacmid DNA using Cellfectin® II transfection reagent (ThermoFisher Scientific, UK, catalog number 10362-100). Following P0 generation P1 virus was then generated ready for large scale infection and membrane preparation. Sf21 cells were grown in expression medium ESF921 (Expression Systems, USA, catalog number 96-001-01) supplemented with 10% heat-inactivated FBS and 1% Pen/Strep and were infected at a cell density of 2.5×10^6 cells/mL and an MOI of 2. Expression was carried out over 48 h in a shaking incubator set at 27° C. The cell culture was centrifuged at 2,500 rcf for 10 min at 4° C. The pellets were resuspended in cold PBS supplemented with Roche's Complete EDTA-free protease inhibitor cocktail tablets (Roche Applied Sciences, catalog number 05056489001), 1 mM PMSF and 1 mM EDTA. The resuspended cell paste was then centrifuged at 3,273 rcf for 12 min at 4° C. The supernatant was discarded and the pellet frozen at −80° C. The cell pellet from a 4 L culture was resuspended in buffer containing 50 mM Hepes pH 7.5, 150 mM NaCl, 8 Roche EDTA-free protease inhibitor cocktail tablets and 1 mM PMSF. The suspension was left stirring at rt for 1 h and then homogenised for 90 s at 9,500 rpm using a VDI 25 (VWR, USA) homogeniser. The cells were then lysed using a Microfluidizer processor M-110L Pneumatic (Microfluidics, USA). After lysis, the mixture was homogenised for 90 s at 9,500 rpm and then centrifuged at 335 rcf for 10 min. The supernatant was then further ultra-centrifuged at 42,000 rpm for 90 min. After ultra-centrifugation, the supernatant was discarded and the pellet was resuspended in 50 mL (25 mL for each 2 L culture) of buffer containing 50 mM Hepes pH 7.5, 150 mM NaCl, 3 Roche EDTA-free protease inhibitor cocktail tablets and 1 mM PMSF. The suspension was then homogenised for 90 s at 9,500 rpm. The resulting membranes were then stored at −80° C.
Human CGRP receptors expressed (consisting of CRLR and RAMP1) in insect Sf21 cell membrane homogenates were re-suspended in the binding buffer (10 mM HEPES, pH 7.4, 5 mM MgCl2, 0.2% BSA) to a final assay concentration of 0.6 μg protein per well. Saturation isotherms were determined by the addition of various concentrations of ^3H-telcagepant (Ho et al, The Lancet, 2008, 372, 2115) (in a total reaction volume of 250 μL) for 60 min at rt. At the end of the incubation, membranes were filtered onto a unifilter, a 96-well white microplate with bonded GF/B filter pre-incubated with 0.5% PEI, with a Tomtec cell harvester and washed 5 times with distilled water. Non-specific binding (NSB) was measured in the presence of 10 nM MK-3207 hydrochloride (CAS No. 957116-20-0). Radioactivity on the filter was counted (1 min) on a microbeta counter after addition of 50 μL of scintillation fluid. For inhibition experiments, membranes were incubated with 0.5 nM ^3H-telcagepant and 10 concentrations of the inhibitory compound (0.001-10 μM). IC50 values were derived from the inhibition curve and the affinity constant (Ki) values were calculated using the Cheng-Prussoff equation (Cheng et al, Biochem. Pharmacol. 1973, 22, 3099-3108).

[3] = Thermodynamic solubility profiling; format: physicochemical; conditions: aqueous buffer, thermodynamic from solid
Procedure: A 50 mM DMSO stock solution of test compound was prepared, and from this, a working solution of 1 mM was prepared by dilution with DMSO. The UV absorbance of working solution was scanned from 220 nm to 1000 nm to identify the wavelength maxima of test compound. The 1 mM working solution was then serially diluted in DMSO to different concentrations to determine linearity/calibration curve. […] The resulting solution was then kept on a RotoSpin shaker at 50 rpm for 24 h at rt before the solution was filtered using 0.45 micron PVDF injector filters in order to remove the insoluble fraction of the compound. Subsequently, 150 uL of the filtrate is taken for quantification using a UV spectrophotometer, acquiring the optical density of standard solutions and test compound at the same wavelength maxima. From the optical density of test compound the thermodynamic solubility is calculated using the linearity/calibration curve and expressed as micromolar (μM). Solubility profiles of certain compounds of the invention are detailed in Table 7.

[4] = PBS buffer pH 7.4, 24 h at rt, read-out: Thermodynamic solubility pH 7.4
[5] = Sodium Phosphate Buffer pH 6.0, 24 h at rt, read-out: Thermodynamic solubility pH 6

| receptor dissociation (off-rate) compared with olcegepant or MK-3207 [1] | CGRP t1/2 [1] | Kb (CGRP receptor) | pKi average [2] | solubility thermodynamic at 24 h [3, 4] | solubility thermodynamic at 24 h [3, 5] | Structure (SMILES) |
| --- | --- | --- | --- | --- | --- | --- |
| slow receptor dissociation | 32 min | 0.00631 nM | 10.1 | – | – | O=C(N[C@@H](CC1CCNCC1)C(=O)N1CCN(c2ccncc2)CC1)[C@@H](Cc1cc(Br)c(O)c(Br)c1)NC(=O)N1CCC(N2Cc3ccccc3NC2=O)CC1 [Example 9, 3,5-dibromo-Nα-{[4-(2-oxo-1,4-dihydroquinazolin-3(2H)-yl)piperidin-1-yl]carbonyl}-N-{(2S)-1-oxo-3-(piperidin-4-yl)-1-[4-(pyridin-4-yl)piperazin-1-yl]propan-2-yl}-D-tyrosinamide] |
| – | 101 min | 0.0251 nM | – | 1960 µM (≈ 1630 µg/mL) | 1650 µM (≈ 1370 µg/mL) | Cc1cc(C[C@@H](NC(=O)N2CCC(n3c(=O)[nH]c4ncccc43)CC2)C(=O)N[C@@H](CC2CCN(CCN(C)C)CC2)C(=O)N2CCN(c3ccncc3)CC2)cc2cn[nH]c12 [Example 12, N-[(2R)-1-({(2S)-3-{1-[2-(dimethylamino)ethyl]piperidin-4-yl}-1-oxo-1-[4-(pyridin-4-yl)piperazin-1-yl]propan-2-yl}amino)-3-(7-methyl-1H-indazol-5-yl)-1-oxopropan-2-yl]-4-(2-oxo-2,3-dihydro-1H-imidazo[4,5-b]pyridin-1-yl)piperidine-1-carboxamide] |
| – | – | 0.126 nM | 10.0 | – | – | Cc1cc(C[C@@H](NC(=O)N2CCC(n3c(=O)[nH]c4ncccc43)CC2)C(=O)N[C@@H](CC2CCN(C(=O)CC(=O)O)CC2)C(=O)N2CCN(c3ccncc3)CC2)cc2cn[nH]c12 [Example 13, 3-(4-{(2S)-2-{[(2R)-3-(7-methyl-1H-indazol-5-yl)-2-({[4-(2-oxo-2,3-dihydro-1H-imidazo[4,5-b]pyridin-1-yl)piperidin-1-yl]carbonyl}amino)propanoyl]amino}-3-oxo-3-[4-(pyridin-4-yl)piperazin-1-yl]propyl}piperidin-1-yl)-3-oxopropanoic Acid, ammonium Salt] |

Further lines, the compound ahead of its results:

| Structure (SMILES) | receptor dissociation (off-rate) compared with olcegepant or MK-3207 [1] | CGRP t1/2 [1] | Kb (CGRP receptor) | pKi average [2] | solubility thermodynamic at 24 h [3, 4] | solubility thermodynamic at 24 h [3, 5] |
| --- | --- | --- | --- | --- | --- | --- |
| Cc1cc(C[C@@H](NC(=O)N2CCC(c3cc4ccccc4[nH]c3=O)CC2)C(=O)N[C@@H](CC2CCN(C(=O)OC(C)(C)C)CC2)C(=O)N2CCN(c3ccncc3)CC2)cc2cn[nH]c12 [Example 2, tert-butyl 4-{(2S)-2-{[(2R)-3-(7-methyl-1H-indazol-5-yl)-2-({[4-(2-oxo-1,2-dihydroquinolin-3-yl)piperidin-1-yl]carbonyl}amino)propanoyl]amino}-3-oxo-3-[4-(pyridin-4-yl)piperazin-1-yl]propyl}piperidine-1-carboxylate] | slow receptor dissociation | 78 min | 0.2 nM | 10.0 | – | – |
| Cc1cc(C[C@@H](NC(=O)N2CCC(c3cc4ccccc4[nH]c3=O)CC2)C(=O)N[C@@H](CC2CCNCC2)C(=O)N2CCN(c3ccncc3)CC2)cc2cn[nH]c12 [Example 3, N-[(2R)-3-(7-methyl-1H-indazol-5-yl)-1-oxo-1-({(2S)-1-oxo-3-(piperidin-4-yl)-1-[4-(pyridin-4-yl)piperazin-1-yl]propan-2-yl}amino)propan-2-yl]-4-(2-oxo-1,2-dihydroquinolin-3-yl)piperidine-1-carboxamide] | – | 4 min | 0.158 nM | 10.1 | 509 µM (≈ 393 µg/mL) | 10 µM (≈ 7.73 µg/mL) |
| CCCN1CCC(C[C@H](NC(=O)[C@@H](Cc2cc(C)c3[nH]ncc3c2)NC(=O)N2CCC(c3cc4ccccc4[nH]c3=O)CC2)C(=O)N2CCN(c3ccncc3)CC2)CC1 [Example 4, N-[(2R)-3-(7-methyl-1H-indazol-5-yl)-1-oxo-1-({(2S)-1-oxo-3-(1-propylpiperidin-4-yl)-1-[4-(pyridin-4-yl)piperazin-1-yl]propan-2-yl}amino)propan-2-yl]-4-(2-oxo-1,2-dihydroquinolin-3-yl)piperidine-1-carboxamide] | slow receptor dissociation | 39 min | 0.02 nM | 10.4 | – | – |
| CCCCC(=O)N1CCC(C[C@H](NC(=O)[C@@H](Cc2cc(C)c3[nH]ncc3c2)NC(=O)N2CCC(c3cc4ccccc4[nH]c3=O)CC2)C(=O)N2CCN(c3ccncc3)CC2)CC1 [Example 6, N-[(2R)-3-(7-methyl-1H-indazol-5-yl)-1-oxo-1-({(2S)-1-oxo-3-(1-pentanoylpiperidin-4-yl)-1-[4-(pyridin-4-yl)piperazin-1-yl]propan-2-yl}amino)propan-2-yl]-4-(2-oxo-1,2-dihydroquinolin-3-yl)piperidine-1-carboxamide] | slow receptor dissociation | 20 min | 0.1 nM | 10.0 | – | – |
| CCN1CCC(C[C@H](NC(=O)[C@@H](Cc2cc(C)c3[nH]ncc3c2)NC(=O)N2CCC(c3cc4ccccc4[nH]c3=O)CC2)C(=O)N2CCN(c3ccncc3)CC2)CC1 [Example 7, N-[(2R)-1-({(2S)-3-(1-ethylpiperidin-4-yl)-1-oxo-1-[4-(pyridin-4-yl)piperazin-1-yl]propan-2-yl}amino)-3-(7-methyl-1H-indazol-5-yl)-1-oxopropan-2-yl]-4-(2-oxo-1,2-dihydroquinolin-3-yl)piperidine-1-carboxamide] | slow receptor dissociation | 36 min | 0.0251 nM | 10.4 | – | – |
